Source: ChEMBL document CHEMBL1201862, “PubChem BioAssay data set” (2004)
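Each compound was tested at five concentrations against cells in 96-well plates for 48 hours. At the GI50, growth is halved.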 Activity calls are given as the source filed them. No stated cut-off is given here; in the data, active = GI50 up to about 1.1 µM and inactive = higher.

Experiments:
Experiment in all cases: DTP human tumour cell line panel, 48 h
SK-MEL-28 = test system: SK-MEL-28
SF-295 = test system: SF-295
UACC-257 = test system: UACC-257
SNB-19 = test system: SNB-19
SK-OV-3 = test system: SK-OV-3
OVCAR-5 = test system: OVCAR-5
SF-539 = test system: SF-539
UO-31 = test system: UO-31
ACHN = test system: ACHN
NCI-H460 = test system: NCI-H460
SK-MEL-2 = test system: SK-MEL-2
SW-620 = test system: SW-620
SR = test system: SR
A549 = test system: A549
M14 = test system: M14
HT-29 = test system: HT-29
U-251 = test system: U-251
IGROV-1 = test system: IGROV-1
SF-268 = test system: SF-268
HL-60 = test system: HL-60

Measured: GI50

CC(Oc1ccc(Cl)cc1Cl)C(=O)NN1C(=O)CC(=O)NC1=S (stereo not given)
inactive: SK-MEL-28 > 100 µM | SF-295 > 100 µM | UACC-257 > 100 µM | SNB-19 > 100 µM | SK-OV-3 > 100 µM | OVCAR-5 > 100 µM | SF-539 > 100 µM | UO-31 > 100 µM | ACHN 88.1 µM | NCI-H460 > 100 µM | SK-MEL-2 80.5 µM | SW-620 > 100 µM | SR > 100 µM | A549 > 100 µM | M14 > 100 µM | HT-29 > 100 µM | U-251 > 100 µM | IGROV-1 > 100 µM | SF-268 > 100 µM | HL-60 30.9 µM

C[C@]12CCC3[C@@H](C[C@H]4OC(=O)[C@@]35CCC(=O)C=C45)C1CCC2=O (stereo not given in full)
inactive: SK-MEL-28 > 100 µM | SF-295 > 100 µM | UACC-257 > 100 µM | SNB-19 > 100 µM | SK-OV-3 > 100 µM | OVCAR-5 > 100 µM | SF-539 > 100 µM | UO-31 > 100 µM | ACHN > 100 µM | NCI-H460 > 100 µM | SK-MEL-2 > 100 µM | SW-620 > 100 µM | SR > 100 µM | A549 > 100 µM | M14 > 100 µM | HT-29 > 100 µM | U-251 > 100 µM | IGROV-1 > 100 µM | SF-268 > 100 µM | HL-60 > 100 µM
